Assay results taken from a compilation of properties of binary mixtures (doi:10.1007/s10953-016-0518-2).

Test: xn = mol fraction of the nth substance listed
Conditions: 101 kPa

OCCO + CC[n+]1ccn(C)c1.F[B-](F)(F)F
x2 = 0
Conditions	viscosity [mPa·s]
303.15 K	13.8
313.15 K	9.62
323.15 K	6.92

CC[n+]1ccn(C)c1.F[B-](F)(F)F + OCCO
viscosity [mPa·s]
Conditions	x1 = 0.0993	x1 = 0.2001	x1 = 0.3023	x1 = 0.4011	x1 = 0.5003	x1 = 0.598	x1 = 0.7003	x1 = 0.7997	x1 = 0.8997	x1 = 1
303.15 K	10.5	9.63	9.5	–	10.6	11.9	14	16.9	21.4	28
313.15 K	7.54	6.96	6.97	–	7.91	8.98	10.5	12.7	15.9	20.4
323.15 K	5.57	5.22	5.3	5.63	6.21	7.05	8.29	9.9	12.3	15.3
333.15 K	–	–	4.2	4.51	5.02	5.7	6.7	8.07	9.7	12.1
